In paper PMC5666514 (Chemical Science, 2015):
*1 amine or outer side, *2 acyl side, *3 side chain or, on linkers, in order; H or OH if unused. Where a SMILES comes first, the peptide text is derived from it. Bridges are numbered along the chain shown (N, C = ends). Roman numbers before positions name the chains, in order. [ ]: non-standard residue; d: D form. The star is where a group is joined. Quinoxaline2carbonyl = O=C(c1cnc2ccccc2n1)*; Ethylenediamine = C(CN[*:2])N[*:1]; NMeV = CN[C@H](C(=O)O)C(C)C; NMeC = CN[C@@H](CS)C(=O)O; Abu = CC[C@H](N)C(=O)O

Tests used:
[1] = system: HT-29 colon adenocarcinoma cells; assay: cells; assay type: cell-based, human; settings: MTT assay, 24 h exposure, run in triplicate or greater; read-out: IC50, Colon HT-29
Experimental: (§1) The twelve synthesized compounds were evaluated in vitro using the following four human cancer cell lines: cervical adenocarcinoma (HeLa), lung carcinoma (A-549), breast adenocarcinoma (SK-BR-3) and colon adenocarcinoma (HT-29). Cells were treated for 24 h with various concentrations of the compounds, and their cytotoxic activity was then assessed using the [3-(4,5-dimethylthiazol-2-yl)-2,5-diphenyltetrazolium] bromide (MTT) assay.[29] Analysis of the dose-response data obtained yielded IC50 (50% inhibitory concentration) values, which are detailed in Table 1.
(§2) Normally growing cells were plated at 5 × 10^3 cells per well into 96-well plates and incubated for 24 h at 37 °C to allow attachment to the surface. Samples were then added dissolved in a DMSO–PBS vehicle (less than 1% in culture medium) at a range of concentrations. Drugs were run in triplicate or greater and control wells contained appropriate percentages of vehicle. After 24 h of exposure, the antitumor effect was measured using a solution of MTT, which is bioreduced by viable cells into formazan. The formed crystals were solubilized using DMSO and the amount of formazan was measured by reading the absorbance at 570 nm. The absorbance of wells containing only the MTT reagent (the plate blank) was subtracted from all wells.
(§3) The IC50 values were determined by dose response curve analysis and statistical analysis using GraphPad Prism software version 5.0a. […]
(§4) mM L-glutamine and antibiotics.
(§5) in a humidified atmosphere containing 5% CO2. For sub-culturing, cells were detached from
(§6) 5 mL of fresh medium preheated at 37 °C. Cellular density was determined in a Neubauer

[2] = system: HeLa cervical adenocarcinoma cells; assay: cells; assay type: cell-based, human; settings: MTT assay, 24 h exposure, run in triplicate or greater; read-out: IC50, Cervix HeLa
Experimental: as §1, §2, §3, §4, §5, §6

[3] = system: A-549 lung carcinoma cells; assay: cells; assay type: cell-based, human; settings: MTT assay, 24 h exposure, run in triplicate or greater; read-out: IC50, Lung A-549
Experimental: as §1, §2, §3, §4, §5, §6

[4] = system: SK-BR-3 breast adenocarcinoma cells; assay: cells; assay type: cell-based, human; settings: MTT assay, 24 h exposure, run in triplicate or greater; read-out: IC50, Breast SK-BR-3
Experimental: as §1, §2, §3, §4, §5, §6

[5] = system: red blood cells; settings: human RBCs, PBS, 1 h at 37 °C, concentrations up to 100 μM, absorbance 560 nm, n=3
[6] = system: HeLa cells; assay: DEVDase (caspase 3/7) activity, Ac-DEVD-AFC substrate; assay type: cell-based, human; settings: 100 nM, 16 h of treatment
Experimental: Data are mean ± s.e.m. […] Data are given as mean ± s.e.m. […] Non-treated cells were used as control. (F, right panel) Densitometric quantification of cleaved caspase 3 and cleaved PARP levels (relative to control, non-treated cells). β-actin was used for loading normalization. Data are mean ± s.e.m.
Thus, we used the fluorogenic substrate Ac–DEVD–AFC as an indicator of the activation of effector caspases, which are the executioners of apoptosis.
(E) HeLa cells were treated as in (D) and apoptosis was assessed by DEVDase activity (right panel) and western blot of PARP1 and caspase-3 (left panel). β-actin was used for loading normalization. Data are mean ± s.e.m.
DEVDase activity was determined in 30 g of RIPA total protein cell lysate (without protease
inhibitors). Cleavage of the fluorogenic substrated Ac-DEVD-AFC. Caspase 3 and PARP
cleavage were determined in 50 g RIPA total protein cell lysate of control and treated cells.

[7] = system: DNA (footprinting substrates MS1 and HexA); assay: DNase I footprinting; assay type: binding; settings: MS1 and HexA fragments; RZ compounds up to 500 μM (RZ2 up to 1 mM)
From the text: compounds are 500 M and 100 M; the concentrations for echinomycin are 10 M and 5 M.

## CC[C@H](NC(=O)[C@H](CO)NC(=O)c1cnc2ccccc2n1)C(=O)N[C@H](C(=O)N[C@H](C(=O)N1CCC[C@@H]1C(=O)NCC(=O)N[C@H](C(=O)N[C@H](C(=O)N[C@@H](CC)C(=O)NCCNC(=O)c1cnc2ccccc2n1)C(C)C)C(C)C)C(C)C)C(C)C [RZ2] (Quinoxaline2carbonyl-S[Abu]VV[dP]GVV[Abu]-{Ethylenediamine-Quinoxaline2carbonyl})
[1]
  IC50: 6.8 µM
[2]
  IC50: 2.7 µM
[3]
  IC50: 11.9 µM
[4]
  IC50: 5.4 µM
[5]
  hemolysis (hemoglobin release from red blood cells): not hemolytic

## CC(C)[C@H]1C(=O)OC[C@@H](NC(=O)c2cnc3ccccc3n2)C(=O)N[C@@H](C)C(=O)N(C)[C@H]2CSSC[C@@H](C(=O)N1C)N(C)C(=O)[C@H](C)NC(=O)[C@H](NC(=O)c1cnc3ccccc3n1)COC(=O)[C@H](C(C)C)N(C)C2=O [Triostin A, reference compound] (I: Quinoxaline2carbonyl-[dS]A[NMeC][NMeV] / II: Quinoxaline2carbonyl-[dS]A[NMeC][NMeV]; ester I:1-II:C, I:C-II:1; disulfide I:3-II:3)
[1]
  IC50: 24.7 µM
[2]
  IC50: 18.8 µM
[3]
  IC50: 23.5 µM
[4]
  IC50: 23.1 µM

## CO/C1=C\C(C)=C\[C@@H](C)[C@@H](O)[C@@H](C)C/C(C)=C/C=C/[C@H](OC)[C@@H]([C@@H](C)[C@@H](O)[C@H](C)[C@@]2(O)C[C@@H](O)[C@H](C)[C@@H](C(C)C)O2)OC1=O [bafilomycin A1]
[6]
  apoptosis induction (DEVDase activity, PARP1 and caspase-3 western blot): induces apoptosis

## echinomycin
[7]
  DNase I footprint (DNA binding): Clear footprints
